Data taken from patent publication US20260234165A1, “MACROCYCLIC COMPOUNDS, PREPARATION METHOD THEREFOR, AND USE THEREOF” (GENFLEET THERAPEUTICS (SHANGHAI) INC., priority 2004, published 2026).

Test system: p-ERK in NCI-H441 cells (KRAS G12V mutation)
Test: Cell p-ERK assay (HTRF) in NCI-H441 cells
Type: cell-based, human
Conditions: Homo sapiens, NCI-H441, 3 h, NCI-H441 cells, 3 h compound incubation, HTRF p-ERK T202/Y204; read-out: H441 p-ERK IC50
Procedure: AsPC-1 cells were purchased from ATCC, Cat. No. CRL-1682: NCI-H441 cells were purchased from ATCC, Cat. No. HTB-174: RPMI-1640 medium was purchased from Gibco, Cat. No. I1875-093: FBS was purchased from Gibco, Cat. No. 10099-141C: penicillin/streptomycin double-antibiotic solution (PS) was purchased from Gibco, Cat. No. 15140-122: trypsin (containing EDTA) was purchased from Gibco, Cat. No. 25200-072; DMSO was purchased from VWRAMRESCO, Cat. No. 0231-500ML; 96-well cell culture plates were purchased from Corning, Cat. No. 3599: white-bottomed, opaque 96-well plates were purchased from Cisbio, Cat. No. 66PL96025; Advance ERK phospho-T202/Y204 kit was purchased from Cisbio, Cat. No. 64AERPEH; cell counter was purchased from CHEMOMETEC, model: NC-200; microplate reader was purchased from PerkinElmer, model: EnVision.
AsPC-1, a human pancreatic cancer cell strain endogenously containing a KRAS^G12D mutation, was cultured in a complete medium containing RPMI-1640+10% FBS+1% PS. NCI-H441, a human non-small cell lung cancer cell strain endogenously containing a KRAS^G12V mutation, was cultured in a complete medium containing RPMI-1640+10% FBS+1% PS.
The cells were digested with trypsin (containing EDTA), collected in their corresponding complete media, and counted. The density of the cell suspensions was adjusted with their corresponding complete media, and 10000 AsPC-1 cells or 20000 NCI-H441 cells per well were seeded into a 96-well cell culture plate, with the volume of the medium in each well being 80 μL.
The cell culture plate was incubated in an incubator at 37° C. with 5% CO2 overnight. A series of 3.16-fold gradient dilutions of a 1000- compound stock solution were prepared with DMSO, and then diluted 200-fold with the complete medium described above to give 5′ compound stock solutions. On the day after cell seeding, 20 μL of the 5× compound stock solution was added to each cell culture well. As a result, the final concentration of the compound in the cell culture well became 1×, and the DMSO content in the well was 0.1%. In addition to the compound-treated wells described above, cell-containing DMSO control wells were also set. A complete medium containing 0.5% DMSO was added at 20 μL/well. After the mixture was well mixed, the culture plate was incubated in the incubator at 37° C. with 5% CO2 for another 3 h. The medium was then removed from the culture wells, and 50 μL of cell lysis buffer (from Advance ERK phospho-T202,Y204 kit) was added to each well. The mixture was well mixed and incubated for 30 min. Then, 16 μL of the mixture was transferred to a white-bottomed, opaque 96-well assay plate, and separately, 16 μL of cell lysis buffer was added to additional wells (serving as blank wells) in the assay plate. After the transfer was completed, 4 μL of p-ERK HTRF antibody mixture (from Advance ERK phospho-T202/Y204 kit) was added to each well of the assay plate, followed by a 4-hour incubation. The HTRF signal values (RLU) were then measured using a microplate reader, and the inhibition rate of the compound against p-ERK levels was calculated as follows: IR (%)=(RLUDMSO−RLUcompound)/(RLUDMSO−RLUblank)×100%, where RLUDMSO is the average HTRF signal value from the DMSO control well samples, RLUblank is the average HTRF signal value from the blank well samples, and RLUcompound is the HTRF signal value from the compound-treated well samples. Using an XLfit software, the IR (%) values were plotted against the logarithm of the compound concentrations, and the dose-response curves were fitted using the four-parameter method to calculate the IC50 values.

SMILES	IC50 [nM]
CCn1c(-c2cc(C#CCN3CCCOCC3)cnc2[C@H](C)OC)c2c3cc(ccc31)-c1csc(n1)C[C@H](NC(=O)CC(C)(C)C)C(=O)N1CCC[C@H](N1)C(=O)OCC(C)(C)C2 (atropisomer, axis not shown; (Ra)) [Compound Z798, N-((6^3S,4S,Z)—(Ra)-1^2-(5-(3-(1,4-oxazepan-4-yl)propyn-1-yl)-2-((S)-1-methoxyethyl)pyridin-3-yl)-1^1ethyl-10,10-dimethyl-5,7-dioxo-6^1,6^2,6^3,6^4,6^5,6^6-hexahydro-1^1H-8-oxa-2(4,2)-thiazola-1(5,3)-indola-6(1,3)-pyridazinacycloundecaphane-4-yl)-3,3-dimethylbutanamide]	3.89
CCn1c(-c2cc(N3CCN(CCS(C)(=O)=O)CC3)cnc2[C@H](C)OC)c2c3cc(ccc31)-c1csc(n1)C[C@H](NC(=O)[C@H]1[C@H](C)[C@@H]1C)C(=O)N1CCC[C@H](N1)C(=O)OCC1(CC1)C2 (atropisomer, axis not shown; (Sa)) [Compound Z377, (1r,2R,3S)—N-((3′S,4′S,Z)-1′-ethyl-(Sa)-2′-(2-((S)-1-methoxyethyl)-5-(4-(2-(methylsulfonyl)ethyl)piperazin-1-yl)pyridin-3-yl)-5′,7′-dioxospiro[cyclopropane-1,10′-8-oxa-2(4,2)-thiazola-1(5,3)-indola-6(1,3)-pyridazinacycloundecaphan]-4′-yl)-2,3-dimethylcyclopropane-1-carboxamide]	87.8
CCn1c(-c2cc(C#CCN3CCCOCC3)cnc2[C@H](C)OC)c2c3cc(ccc31)-c1csc(n1)C[C@H](NC(=O)[C@H]1[C@H](C)[C@@H]1C)C(=O)N1CCC[C@H](N1)C(=O)OCC(C)(C)C2 (atropisomer, axis not shown; (Sa)) [Compound Z547, (1r,2R,3S)—N-((6^3S,4S,Z)—(Sa)-1′-(5-(3-(1,4-oxazepan-4-yl)prop-1-yn-1-yl)-2-((S)-1-methoxyethyl)pyridin-3-yl)-1′-ethyl-10,10-dimethyl-5,7-dioxo-6^1,6^2,6^3,6^4,6^5,6^6-hexahydro-1^1H-8-oxa-2(4,2)-thiazola-1(5,3)-indola-6(1,3)-pyridazinacycloundecaphane-4-yl)-2,3-dimethylcyclopropane-1-carboxamide]	78.1
CCn1c(-c2cc(C#CCN3CCCOCC3)cnc2[C@H](C)OC)c2c3cc(ccc31)-c1csc(n1)C[C@H](NC(=O)[C@H](C(C)C)N(C)S(C)(=O)=NC)C(=O)N1CCC[C@H](N1)C(=O)OCC(C)(C)C2 (mixture of isomers) [Compound Z912, (2S)—N-((6^3S,4S,Z)-1^2-(5-(3-(1,4-oxazepan-4-yl)prop-1-yn-1-yl)-2-((5)-1-methoxyethyl)pyridin-3-yl)-1^1-ethyl-10,10-dimethyl-5,7-dioxo-6^1,6^2,6^3,6^4,6^5,6^6-hexahydro-1^1H-8-oxa-2(4.2)-thiazola-1(5,3)-indola-6(1,3)-pyridazinacycloundecaphane-4-yl)-2-(N,N-dimethylmethylsulfonimidoyl)-3-methylbutanamide]	1.83
CCn1c(-c2cc(C3(C(=O)N4CCN(C)CC4)CC3)cnc2[C@H](C)OC)c2c3cc(ccc31)-c1csc(n1)C[C@H](NC(=O)[C@H]1[C@H](C)[C@@H]1C)C(=O)N1CCC[C@H](N1)C(=O)OCC1(CC1)C2 [Compound Z347, (1r,2R,3b)-N-((3′S,4′S,Z)-1′-ethyl-2′-(2-(1-methoxyethyl)-5-(1-(4-methylpiperazine-1-carbonyl)cyclopropyl)pyridin-3-yl)-5′,7′-dioxospiro[cyclopropane-1,10′-8-oxa-2(4,2)-thiazola-1(5,3)-indola-6(1,3)-pyridazinacycloundecaphan]-4-yl)-2,3-dimethylcyclopropane-1-carboxamide]	152
CCn1c(-c2cc(N3CCN(c4ccc(C)cc4)CC3)cnc2[C@H](C)OC)c2c3cc(ccc31)-c1csc(n1)C[C@H](NC(=O)[C@H]1[C@H](C)[C@@H]1C)C(=O)N1CCC[C@H](N1)C(=O)OCC1(CC1)C2 [Compound Z461, (1r,2R,3S)—N-((3′S,4′S,Z)-1′-ethyl-2′-(2-((S)-1-methoxyethyl)-5-(4-(p-tolyl)piperazin-1-yl)pyridin-3-yl)-5′,7′-dioxospiro[cyclopropane-1,10′-8-oxa-2(4,2)-thiazola-1(5,3)-indola-6(1,3)-pyridazinacycloundecaphan]-4′-yl)-2,3-dimethylcyclopropane-1-carboxamide]	93

Further lines, results first:

IC50 [nM]	SMILES
2.17	CCn1c(-c2cc(C#CCN3CCN(C(C)=O)CC3)cnc2[C@H](C)OC)c2c3cc(ccc31)-c1csc(n1)C[C@H](Nc1nnc3cc(C)ccn13)C(=O)N1CCC[C@H](N1)C(=O)OCC(C)(C)C2 (atropisomer, axis not shown; (Ra)) [Compound Z981]
1.54	CCn1c(-c2cc(C#CCN3CCN(C)S(=O)(=O)CC3)cnc2[C@H](C)OC)c2c3cc(ccc31)-c1csc(n1)C[C@H](Nc1nnc3cc(C)ccn13)C(=O)N1CCC[C@H](N1)C(=O)OCC(C)(C)C2 (atropisomer, axis not shown; (Ra)) [Compound Z1027, (6^3S,4S,Z)-1^1-ethyl-1^2-(Ra)-(2-((S)-1-methoxyethyl)-5-(3-(2-methyl-1,1-dioxido-1,2,5-thiadiazepan-5-yl)prop-1-yn-1-yl)pyridin-3-yl)-10,10-dimethyl-4-((7-methyl-[1,2,4]triazolo[4,3-a]pyridin-3-yl)amino)-6^1,6^2,6^3,6^4,6^5,6^6-hexahydro-1^1H-8-oxa-2(4,2)-thiazola-1(5,3)-indola-6(1,3)-pyridazinacycloundecaphane-5,7-dione]

Same assay, conditions: NCI-H441 cells, 3 h compound incubation, HTRF p-ERK T202/Y204; read-out: H441 p-ERK IC50

IC50 [nM]	SMILES
3.35	CCn1c(-c2cc(C#CCN3CC4CCC(C3)N4C(C)=O)cnc2[C@H](C)OC)c2c3cc(ccc31)-c1csc(n1)C[C@H](Nc1nnc3cc(C)ccn13)C(=O)N1CCC[C@H](N1)C(=O)OCC(C)(C)C2 (atropisomer, axis not shown; (Ra)) [Compound Z1014, (6^3S,4S,Z)-1^2-(5-(3-(8-acetyl-3,8-diazabicyclo[3.2.1]octan-3-yl)prop-1-yn-1-yl)-(Ra)-2-((S)-1-methoxyethyl)pyridin-3-yl)-1^1-ethyl-10,10-dimethyl-4-((7-methyl-[1,2,4]triazolo[4,3-a]pyridin-3-yl)amino)-6^1,6^2,6^3,6^4,6^5,6^6-hexahydro-1^1H-8-oxa-2(4,2)-thiazola-1(5,3)-indola-6(1,3)-pyridazinacycloundecaphane-5,7-dione]
5.46	CCn1c(-c2cc(C#CCN3CCCOCC3)cnc2[C@H](C)OC)c2c3cc(ccc31)-c1csc(n1)C[C@H](Nc1nnc3cc(Br)ccn13)C(=O)N1CCC[C@H](N1)C(=O)OCC(C)(C)C2 [Compound Z960, (6-S,4S,Z)—(R4)-1^2-(5-(3-(1,4-oxazepan-4-yl)prop-1-yn-1-yl)-2-((S)-1-methoxyethyl)pyridin-3-yl)-4-((7-bromo-[1,2,4]triazolo[4,3-a]pyridin-3-yl)amino)-1^1-ethyl-10,10-dimethyl-6^1,6^2,6^3,6^4,6^5,6^6-hexahydro-1^1H-8-oxa-2(4,2)-thiazola-1(5,3)-indola-6(1,3)-pyridazinacycloundecaphane-5,7-dione]
